In ChEMBL document CHEMBL1201862, “PubChem BioAssay data set” (2004):
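48-hour exposure; five concentrations; linearly interpolated endpoints. At the GI50, growth is halved.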 The source made the active and inactive calls. Cut-off read from the data, not from the text of the source: active = GI50 up to about 1.1 µM and inactive = higher.

Experiments:
Experiment in all cases: growth of human tumour cells (NCI), 48 h
[1] = test system: 786-0
[2] = test system: A498
[3] = test system: A549
[4] = test system: ACHN
[5] = test system: BT-549
[6] = test system: CAKI-1
[7] = test system: CCRF-CEM
[8] = test system: COLO 205
[9] = test system: DLD-1
[10] = test system: DMS-114
[11] = test system: DMS-273
[12] = test system: DU-145
[13] = test system: EKVX
[14] = test system: HCC 2998
[15] = test system: HCT-116
[16] = test system: HCT-15
[17] = test system: HL-60
[18] = test system: HOP-18
[19] = test system: HOP-62
[20] = test system: HOP-92
[21] = test system: HT-29
[22] = test system: Hs-578T
[23] = test system: IGROV-1
[24] = test system: K562
[25] = test system: KM-20L2
[26] = test system: KM12
[27] = test system: LOX IMVI
[28] = test system: LXFL 529
[29] = test system: M14
[30] = test system: M19-MEL
[31] = test system: MCF7
[32] = test system: MDA-MB-231
[33] = test system: MDA-MB-435
[34] = test system: MDA-N
[35] = test system: MOLT-4
[36] = test system: Malme-3M
[37] = test system: NCI-H226
[38] = test system: NCI-H23
[39] = test system: NCI-H460
[40] = test system: NCI-H522
[41] = test system: NCI/ADR-RES
[42] = test system: OVCAR-3
[43] = test system: OVCAR-4
[44] = test system: OVCAR-5
[45] = test system: OVCAR-8
[46] = test system: PC-3
[47] = test system: RPMI-8226
[48] = test system: RXF 393
[49] = test system: SF-268
[50] = test system: SF-295
[51] = test system: SF-539
[52] = test system: SK-MEL-28
[53] = test system: SK-MEL-2
[54] = test system: SK-MEL-5
[55] = test system: SK-OV-3
[56] = test system: SN12C
[57] = test system: SNB-19
[58] = test system: SNB-75
[59] = test system: SNB-78
[60] = test system: SR
[61] = test system: SW-620
[62] = test system: T47D
[63] = test system: TK-10
[64] = test system: U-251
[65] = test system: UACC-257
[66] = test system: UACC-62
[67] = test system: UO-31
[68] = test system: XF498
[69] = test system: RXF 631

Compound: Cn1cnc([N+](=O)[O-])c1Sc1nnc(-c2cccnc2)n1C
- GI50 [1]: 18.5 µM (inactive)
- GI50 [2]: > 79.1 µM (inactive)
- GI50 [3]: 84.5 µM (inactive)
- GI50 [4]: 17.1 µM (inactive)
- GI50 [5]: 19 µM (inactive)
- GI50 [6]: 25.4 µM (inactive)
- GI50 [7]: 15.5 µM (inactive)
- GI50 [8]: 15.3 µM (inactive)
- GI50 [9]: 18.8 µM (inactive)
- GI50 [10]: 18.9 µM (inactive)
- GI50 [11]: 80.2 µM (inactive)
- GI50 [12]: 36.4 µM (inactive)
- GI50 [13]: 38.2 µM (inactive)
- GI50 [14]: 30.9 µM (inactive)
- GI50 [15]: 18.4 µM (inactive)
- GI50 [16]: 17.2 µM
- GI50 [17]: 6.55 µM (inactive)
- GI50 [18]: 14.6 µM (inactive)
- GI50 [19]: > 91.6 µM (inactive)
- GI50 [20]: 14.5 µM (inactive)
- GI50 [21]: 17.4 µM (inactive)
- GI50 [22]: 34.7 µM (inactive)
- GI50 [23]: 68.5 µM (inactive)
- GI50 [24]: 19.9 µM (inactive)
- GI50 [25]: 33.9 µM (inactive)
- GI50 [26]: > 82 µM (inactive)
- GI50 [27]: 17.8 µM (inactive)
- GI50 [28]: 12 µM (inactive)
- GI50 [29]: 16.8 µM (inactive)
- GI50 [30]: 19.1 µM (inactive)
- GI50 [31]: 23.8 µM (inactive)
- GI50 [32]: 19.2 µM (inactive)
- GI50 [33]: 14.9 µM (inactive)
- GI50 [34]: 19.5 µM (inactive)
- GI50 [35]: 18.2 µM (inactive)
- GI50 [36]: 15.5 µM (inactive)
- GI50 [37]: > 66.4 µM (inactive)
- GI50 [38]: 23.1 µM (inactive)
- GI50 [39]: > 85.1 µM (inactive)
- GI50 [40]: 5.78 µM (inactive)
- GI50 [41]: 46.6 µM (inactive)
- GI50 [42]: 17.2 µM (inactive)
- GI50 [43]: 22.2 µM (inactive)
- GI50 [44]: 67.3 µM (inactive)
- GI50 [45]: 21.3 µM (inactive)
- GI50 [46]: 25 µM (inactive)
- GI50 [47]: 18.1 µM (inactive)
- GI50 [48]: 7.83 µM (inactive)
- GI50 [49]: 36.2 µM (inactive)
- GI50 [50]: > 100 µM (inactive)
- GI50 [51]: 22.2 µM (inactive)
- GI50 [52]: 17.5 µM (inactive)
- GI50 [53]: 18.5 µM (inactive)
- GI50 [54]: 16.9 µM (inactive)
- GI50 [55]: > 100 µM (inactive)
- GI50 [56]: 25.4 µM (inactive)
- GI50 [57]: > 100 µM (inactive)
- GI50 [58]: 58.7 µM (inactive)
- GI50 [59]: 21.4 µM (inactive)
- GI50 [60]: 15.3 µM (inactive)
- GI50 [61]: 14.7 µM (inactive)
- GI50 [62]: 12.6 µM (inactive)
- GI50 [63]: 16.8 µM (inactive)
- GI50 [64]: 43.6 µM (inactive)
- GI50 [65]: 13.9 µM (inactive)
- GI50 [66]: 17.3 µM (inactive)
- GI50 [67]: 32.4 µM (inactive)
- GI50 [68]: 20.4 µM (inactive)

Compound: C[N+](C)(C)CC(=O)N/N=C(/Cc1cc(=O)oc2cc(O)ccc12)C(=O)Nc1ccc(Cl)cc1
- GI50 [1]: > 100 µM (inactive)
- GI50 [2]: > 100 µM (inactive)
- GI50 [3]: > 100 µM (inactive)
- GI50 [4]: > 100 µM (inactive)
- GI50 [6]: > 100 µM (inactive)
- GI50 [7]: > 100 µM (inactive)
- GI50 [8]: > 100 µM (inactive)
- GI50 [9]: > 100 µM (inactive)
- GI50 [10]: > 100 µM (inactive)
- GI50 [13]: > 100 µM (inactive)
- GI50 [14]: > 100 µM (inactive)
- GI50 [15]: > 100 µM (inactive)
- GI50 [17]: > 100 µM (inactive)
- GI50 [19]: > 100 µM (inactive)
- GI50 [21]: > 100 µM (inactive)
- GI50 [23]: > 100 µM (inactive)
- GI50 [24]: > 100 µM (inactive)
- GI50 [25]: > 100 µM (inactive)
- GI50 [26]: > 100 µM (inactive)
- GI50 [29]: > 100 µM (inactive)
- GI50 [30]: > 100 µM (inactive)
- GI50 [35]: > 100 µM (inactive)
- GI50 [36]: > 100 µM (inactive)
- GI50 [38]: > 100 µM (inactive)
- GI50 [39]: > 100 µM (inactive)
- GI50 [40]: > 100 µM (inactive)
- GI50 [42]: > 100 µM (inactive)
- GI50 [43]: > 100 µM (inactive)
- GI50 [44]: > 100 µM (inactive)
- GI50 [45]: > 100 µM (inactive)
- GI50 [47]: > 100 µM (inactive)
- GI50 [48]: > 100 µM (inactive)
- GI50 [69]: > 100 µM (inactive)
- GI50 [49]: > 100 µM (inactive)
- GI50 [50]: > 100 µM (inactive)
- GI50 [51]: > 100 µM (inactive)
- GI50 [52]: > 100 µM (inactive)
- GI50 [53]: > 100 µM (inactive)
- GI50 [54]: > 100 µM (inactive)
- GI50 [55]: > 100 µM (inactive)
- GI50 [56]: > 100 µM (inactive)
- GI50 [57]: > 100 µM (inactive)
- GI50 [60]: > 100 µM (inactive)
- GI50 [61]: > 100 µM (inactive)
- GI50 [63]: > 100 µM (inactive)
- GI50 [65]: > 100 µM (inactive)
- GI50 [66]: > 100 µM (inactive)
- GI50 [67]: > 100 µM (inactive)
